Where a name gives a salt, the structure may show the parent alone.
System: ED cells (E. derm NBM-6, ATCC CCL-57)
Experiment: cell viability (ATP, CellTiter-Glo) relative to untreated control (fraction of control); higher = less cytotoxic

CC(C)c1nc(CN(C)C(=O)N[C@H](C(=O)N[C@@H](Cc2ccccc2)C[C@H](O)[C@H](Cc2ccccc2)NC(=O)OCc2cncs2)C(C)C)cs1 [ritonavir]
cell viability
Settings | 0.5 µM | 2 µM | 5 µM | 10 µM | 25 µM | 50 µM | 80 µM | 100 µM | 200 µM | 300 µM
incubation time: 1h | 1.05 | 1.05 | 1.05 | 1.03 | 1 | 0.976 | 0.899 | 0.879 | 0.881 | 0.887
incubation time: 24h | 1.03 | 0.991 | 0.964 | 0.922 | 0.886 | 0.834 | 0.426 | 0.372 | 0.363 | 0.363
incubation time: 72h | 1.01 | 0.949 | 0.868 | 0.81 | 0.763 | 0.686 | 0.00794 | 0.00652 | 0.00418 | 0.00806
incubation time: 144h | 1 | 0.966 | 0.901 | 0.854 | 0.788 | 0.703 | 0.0753 | 0.0037 | 0.00476 | 0.00437

CC(C)(C)NC(=O)[C@@H]1C[C@@H]2CCCC[C@@H]2CN1C[C@@H](O)[C@H](Cc1ccccc1)NC(=O)[C@H](CC(N)=O)NC(=O)c1ccc2ccccc2n1 [saquinavir]
cell viability
Settings | 0.25 µM | 0.5 µM | 2 µM | 5 µM | 10 µM | 20 µM | 25 µM | 30 µM | 50 µM | 65 µM
incubation time: 1h | 1.03 | 1.04 | 1.03 | 1.04 | 1.03 | 1 | 1.01 | 1.02 | 0.958 | 0.868
incubation time: 24h | 0.995 | 1.01 | 1 | 0.992 | 0.955 | 0.896 | 0.872 | 0.868 | 0.75 | 0.583
incubation time: 72h | 1.04 | 1.03 | 1.01 | 0.956 | 0.904 | 0.798 | 0.753 | 0.687 | 0.306 | 0.0705
incubation time: 144h | 1.02 | 1.02 | 1 | 0.951 | 0.922 | 0.808 | 0.743 | 0.699 | 0.201 | 0.0214

CC(C)OC(=O)OCOP(=O)(CO[C@H](C)Cn1cnc2c(N)ncnc21)OCOC(=O)OC(C)C [tenofovir disoproxil fumarate]
cell viability
Settings | 0.5 µM | 2 µM | 5 µM | 10 µM | 20 µM | 40 µM | 50 µM | 75 µM | 100 µM | 150 µM
incubation time: 1h | 1.01 | 1.01 | 1.02 | 1.02 | 1.01 | 0.999 | 1 | 1 | 0.999 | 0.988
incubation time: 24h | 1.02 | 1.01 | 1 | 0.98 | 0.95 | 0.89 | 0.855 | 0.795 | 0.721 | 0.613
incubation time: 72h | 1 | 0.992 | 0.947 | 0.898 | 0.836 | 0.75 | 0.708 | 0.643 | 0.643 | 0.545
incubation time: 144h | 1.02 | 0.993 | 0.941 | 0.877 | 0.833 | 0.766 | 0.737 | 0.662 | 0.624 | 0.527

CCC[C@@]1(CCc2ccccc2)CC(O)=C([C@H](CC)c2cccc(NS(=O)(=O)c3ccc(C(F)(F)F)cn3)c2)C(=O)O1 [tipranavir]
cell viability
Settings | 0.25 µM | 0.5 µM | 2 µM | 5 µM | 10 µM | 20 µM | 50 µM | 100 µM | 140 µM | 166 µM
incubation time: 1h | 1.01 | 1 | 0.997 | 1 | 1 | 0.982 | 0.958 | 0.789 | 0.636 | 0.622
incubation time: 24h | 1.01 | 1 | 0.993 | 1 | 1.03 | 0.966 | 0.885 | 0.718 | 0.505 | 0.498
incubation time: 72h | 1.04 | 1.04 | 1.04 | 1.02 | 1.01 | 0.99 | 0.822 | 0.557 | 0.294 | 0.212
incubation time: 144h | 1 | 1.01 | 1.01 | 1 | 0.996 | 0.973 | 0.772 | 0.405 | 0.109 | 0.0669

Cc1cn([C@H]2C[C@H](N=[N+]=[N-])[C@@H](CO)O2)c(=O)[nH]c1=O [zidovudine]
cell viability
Settings | 0.5 µM | 2 µM | 5 µM | 10 µM | 25 µM | 50 µM | 80 µM | 100 µM | 200 µM | 300 µM
incubation time: 1h | 1.05 | 1.06 | 1.05 | 1.04 | 1.02 | 1.04 | 1.04 | 1.04 | 1.03 | 1.02
incubation time: 24h | 1.06 | 1.05 | 1.02 | 1.02 | 1.02 | 1.05 | 0.981 | 0.98 | 1.04 | 0.958
incubation time: 72h | 1.07 | 1.07 | 1.09 | 1.09 | 1.08 | 1.09 | 1.07 | 1.08 | 1.09 | 1.08
incubation time: 144h | 1.01 | 1.03 | 1.03 | 1.03 | 1.04 | 1.03 | 1.03 | 1.04 | 1.06 | 1.06

Source: the supplement of paper PMC11699113
